Structures can show the parent of a compound that is named as a salt.
Molecular target: human KDR protein in HEK-293 cells (Homo sapiens (Human), UniProt P35968)
Assay: KDR Cell Assay (phospho-KDR in HEK-293 cells expressing inducible KDR)
Type: cell-based
Summary of the method: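 HEK-293 cells with inducible human KDR were treated with compound for 1 h in DMEM (0.25% DMSO final), then lysed. Phospho-KDR was quantified by Meso Scale immunoassay, expressed as percent of control, and IC50 taken where a 4-parameter logistic fit crossed 50 POC.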

[1] = pKDR Cell HEK 10% FBS IC50, HEK-293 cells expressing inducible KDR, VEGF stimulated, 10% FBS

Chain of human KDR protein in HEK-293 cells (P35968 20-1356): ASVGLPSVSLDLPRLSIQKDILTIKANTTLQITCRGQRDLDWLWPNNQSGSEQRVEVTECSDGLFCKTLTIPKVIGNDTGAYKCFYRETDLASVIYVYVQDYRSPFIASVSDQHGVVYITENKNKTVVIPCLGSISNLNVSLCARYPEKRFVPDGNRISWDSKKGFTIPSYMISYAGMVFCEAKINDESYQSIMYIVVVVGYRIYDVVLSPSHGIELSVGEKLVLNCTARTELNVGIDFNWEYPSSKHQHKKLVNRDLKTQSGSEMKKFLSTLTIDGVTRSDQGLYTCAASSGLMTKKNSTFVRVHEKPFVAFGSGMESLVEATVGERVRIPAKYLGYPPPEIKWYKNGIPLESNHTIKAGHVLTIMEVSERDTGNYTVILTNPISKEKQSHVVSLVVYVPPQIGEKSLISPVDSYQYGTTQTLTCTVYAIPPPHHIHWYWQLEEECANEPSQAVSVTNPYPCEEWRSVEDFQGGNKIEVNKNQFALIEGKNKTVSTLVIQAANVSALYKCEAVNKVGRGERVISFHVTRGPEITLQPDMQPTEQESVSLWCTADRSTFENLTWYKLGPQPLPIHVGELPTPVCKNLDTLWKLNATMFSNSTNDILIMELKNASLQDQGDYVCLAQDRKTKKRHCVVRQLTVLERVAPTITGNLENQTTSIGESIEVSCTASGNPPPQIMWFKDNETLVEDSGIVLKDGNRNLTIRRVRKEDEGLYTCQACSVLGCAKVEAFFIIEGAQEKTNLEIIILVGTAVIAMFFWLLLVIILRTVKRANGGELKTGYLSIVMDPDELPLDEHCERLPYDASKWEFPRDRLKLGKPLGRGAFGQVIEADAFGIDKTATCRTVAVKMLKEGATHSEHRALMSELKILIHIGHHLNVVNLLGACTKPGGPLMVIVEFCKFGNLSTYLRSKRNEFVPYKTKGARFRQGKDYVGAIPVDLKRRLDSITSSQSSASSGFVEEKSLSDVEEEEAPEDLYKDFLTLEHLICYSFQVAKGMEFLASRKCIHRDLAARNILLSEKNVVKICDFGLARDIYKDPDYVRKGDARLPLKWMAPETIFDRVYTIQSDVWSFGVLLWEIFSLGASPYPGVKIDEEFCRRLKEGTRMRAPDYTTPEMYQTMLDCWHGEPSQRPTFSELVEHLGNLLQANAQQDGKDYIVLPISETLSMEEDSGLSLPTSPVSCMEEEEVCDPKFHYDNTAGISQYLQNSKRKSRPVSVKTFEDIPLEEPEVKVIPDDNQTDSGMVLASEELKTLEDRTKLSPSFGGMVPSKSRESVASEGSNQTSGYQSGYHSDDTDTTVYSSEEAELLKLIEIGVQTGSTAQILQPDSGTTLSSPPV

| Compound | IC50 [1] [nM] | IC50 (pKDR Cell HEK 10% FBS IC50) [nM] |
| --- | --- | --- |
| Cn1cc(-c2cc(-c3ccc(N4CCN(C(=O)NC5CC5)CC4)nc3)c3c(C#N)cnn3c2)cn1 [Example 131, 4-(5-(3-cyano-6-(1-methyl-1H-pyrazol-4-yl)pyrazolo[1,5-a]pyridin-4-yl)pyridin-2-yl)-N-cyclopropylpiperazine-1-carboxamide 2,2,2-trifluoroacetate] | 447 |  |
| CN(C)C(=O)N1CCN(c2ccc(-c3cc(-c4cnn(C)c4)cn4ncc(C#N)c34)cn2)CC1 [Example 132, 4-(5-(3-cyano-6-(1-methyl-1H-pyrazol-4-yl)pyrazolo[1,5-a]pyridin-4-yl)pyridin-2-yl)-N,N-dimethylpiperazine-1-carboxamide] | 1150 |  |
| Cn1cc(-c2cc(-c3ccc(N4CCN(CCc5ccc(Cl)cc5)CC4)nc3)c3c(C#N)cnn3c2)cn1 [Example 140, 4-(6-(4-(4-chlorophenethyl)piperazin-1-yl)pyridin-3-yl)-6-(1-methyl-1H-pyrazol-4-yl)pyrazolo[1,5-a]pyridine-3-carbonitrile] | 712 |  |
| Cn1cc(-c2cc(-c3ccc(N4CCN(CC(=O)N5CCCC5)CC4)nc3)c3c(C#N)cnn3c2)cn1 [Example 145, 6-(1-methyl-1H-pyrazol-4-yl)-4-(6-(4-(2-oxo-2-(pyrrolidin-1-yl)ethyl)piperazin-1-yl)pyridin-3-yl)pyrazolo[1,5-a]pyridine-3-carbonitrile 2,2,2-trifluoroacetate] | 682 |  |
| C[C@H]([C@H](O)c1ccccc1)N1CCN(c2ccc(-c3cc(-c4cnn(C)c4)cn4ncc(C#N)c34)cn2)CC1 [Example 147, 4-(6-(4-((1R,2R)-1-hydroxy-1-phenylpropan-2-yl)piperazin-1-yl)pyridin-3-yl)-6-(1-methyl-1H-pyrazol-4-yl)pyrazolo[1,5-a]pyridine-3-carbonitrile] | 1290 |  |
| CC[C@H](O)CN1CCN(c2ccc(-c3cc(-c4cnn(C)c4)cn4ncc(C#N)c34)cn2)CC1 [Example 150, (S)-4-(6-(4-(2-hydroxybutyl)piperazin-1-yl)pyridin-3-yl)-6-(1-methyl-1H-pyrazol-4-yl)pyrazolo[1,5-a]pyridine-3-carbonitrile] |  | 728 |
| Cn1cc(-c2cc(-c3ccc(N4CCN([C@@H]5CCCC[C@H]5O)CC4)nc3)c3c(C#N)cnn3c2)cn1 [Example 155, 4-(6-(4-((1r,2r)-2-hydroxycyclohexyl)piperazin-1-yl)pyridin-3-yl)-6-(1-methyl-1H-pyrazol-4-yl)pyrazolo[1,5-a]pyridine-3-carbonitrile] | 979 |  |
| Cn1cc(-c2cc(-c3ccc(N4CCN(CC(C)(C)O)CC4)nc3)c3c(C#N)cnn3c2)cn1 [Example 156, 4-(6-(4-(2-hydroxy-2-methylpropyl)piperazin-1-yl)pyridin-3-yl)-6-(1-methyl-1H-pyrazol-4-yl)pyrazolo[1,5-a]pyridine-3-carbonitrile] | 1760 |  |
| Cn1cc(-c2cc(-c3ccc(N4CCN([C@@H]5COC[C@H]5O)CC4)nc3)c3c(C#N)cnn3c2)cn1 [Example 159, 4-(6-(4-((3r,4s)-4-hydroxytetrahydrofuran-3-yl)piperazin-1-yl)pyridin-3-yl)-6-(1-methyl-1H-pyrazol-4-yl)pyrazolo[1,5-a]pyridine-3-carbonitrile] | 1300 |  |
| Cn1cc(-c2cc(-c3ccc(N4CCN([C@@H]5CCC[C@H]5O)CC4)nc3)c3c(C#N)cnn3c2)cn1 [Example 163, 4-(6-(4-((1r,2r)-2-hydroxycyclopentyl)piperazin-1-yl)pyridin-3-yl)-6-(1-methyl-1H-pyrazol-4-yl)pyrazolo[1,5-a]pyridine-3-carbonitrile] | 991 |  |
| Cn1cc(-c2cc(-c3ccc(N4CCN(C(=O)OC(C)(C)C)C5(CC5)C4)nc3)c3c(C#N)cnn3c2)cn1 [Example 166, tert-butyl 7-(5-(3-cyano-6-(1-methyl-1H-pyrazol-4-yl)pyrazolo[1,5-a]pyridin-4-yl)pyridin-2-yl)-4,7-diazaspiro[2.5]octane-4-carboxylate] | 1990 |  |
| Cn1cc(-c2cc(-c3ccc(N4CCNC5(CC5)C4)nc3)c3c(C#N)cnn3c2)cn1 [Example 167, 4-(6-(4,7-diazaspiro[2.5]octan-7-yl)pyridin-3-yl)-6-(1-methyl-1H-pyrazol-4-yl)pyrazolo[1,5-a]pyridine-3-carbonitrile dihydrochloride] | 780 |  |
| Cn1cc(-c2cc(-c3ccc(N4CCN(C(=O)CC(C)(C)O)C5(CC5)C4)nc3)c3c(C#N)cnn3c2)cn1 [Example 168, 4-(6-(4-(3-hydroxy-3-methylbutanoyl)-4,7-diazaspiro[2.5]octan-7-yl)pyridin-3-yl)-6-(1-methyl-1H-pyrazol-4-yl)pyrazolo[1,5-a]pyridine-3-carbonitrile] | 1090 |  |
| Cn1cc(-c2cc(-c3ccc(N4CCN(C(=O)CC(C)(C)C)C5(CC5)C4)nc3)c3c(C#N)cnn3c2)cn1 [Example 169, 4-(6-(4-(3,3-dimethylbutanoyl)-4,7-diazaspiro[2.5]octan-7-yl)pyridin-3-yl)-6-(1-methyl-1H-pyrazol-4-yl)pyrazolo[1,5-a]pyridine-3-carbonitrile] | 1440 |  |
| Cn1cc(-c2cc(-c3ccc(N4CC5CCC(C4)N5C(=O)OC(C)(C)C)nc3)c3c(C#N)cnn3c2)cn1 [Example 173, tert-butyl 3-(5-(3-cyano-6-(1-methyl-1H-pyrazol-4-yl)pyrazolo[1,5-a]pyridin-4-yl)pyridin-2-yl)-3,8-diazabicyclo[3.2.1]octane-8-carboxylate] | 1270 |  |
| Cn1cc(-c2cc(-c3ccc(N4CC5CCC(C4)N5)nc3)c3c(C#N)cnn3c2)cn1 [Example 174, 4-(6-(3,8-diazabicyclo[3.2.1]octan-3-yl)pyridin-3-yl)-6-(1-methyl-1H-pyrazol-4-yl)pyrazolo[1,5-a]pyridine-3-carbonitrile dihydrochloride] | 1220 |  |

Further lines, with some results ahead:

| IC50 [1] [nM] | Compound | IC50 (pKDR Cell HEK 10% FBS IC50) [nM] |
| --- | --- | --- |
| 616 | Cn1cc(-c2cc(-c3ccc(N4CCN(C(=O)N5CCCC5)CC4)nc3)c3c(C#N)cnn3c2)cn1 [Example 125, 6-(1-methyl-1H-pyrazol-4-yl)-4-(6-(4-(pyrrolidine-1-carbonyl)piperazin-1-yl)pyridin-3-yl)pyrazolo[1,5-a]pyridine-3-carbonitrile] |  |
| 93.5 | Cn1cc(-c2cc(-c3ccc(N4CCN(C(=O)NCc5ccccc5)CC4)nc3)c3c(C#N)cnn3c2)cn1 [Example 129, N-benzyl-4-(5-(3-cyano-6-(1-methyl-1H-pyrazol-4-yl)pyrazolo[1,5-a]pyridin-4-yl)pyridin-2-yl)piperazine-1-carboxamide] |  |
| 16.1 | Cn1cc(-c2cc(-c3ccc(N4CCN(S(=O)(=O)N5CCCC5)CC4)nc3)c3c(C#N)cnn3c2)cn1 [Example 138, 6-(1-methyl-1H-pyrazol-4-yl)-4-(6-(4-(pyrrolidin-1-ylsulfonyl)piperazin-1-yl)pyridin-3-yl)pyrazolo[1,5-a]pyridine-3-carbonitrile] |  |
| 289 | Cn1cc(-c2cc(-c3ccc(N4CCN(Cc5ccccc5)CC4)nc3)c3c(C#N)cnn3c2)cn1 [Example 139, 4-(6-(4-benzylpiperazin-1-yl)pyridin-3-yl)-6-(1-methyl-1H-pyrazol-4-yl)pyrazolo[1,5-a]pyridine-3-carbonitrile] |  |
| 563 | C[C@@H]([C@@H](O)c1ccccc1)N1CCN(c2ccc(-c3cc(-c4cnn(C)c4)cn4ncc(C#N)c34)cn2)CC1 [Example 149, 4-(6-(4-((1S,2S)-1-hydroxy-1-phenylpropan-2-yl)piperazin-1-yl)pyridin-3-yl)-6-(1-methyl-1H-pyrazol-4-yl)pyrazolo[1,5-a]pyridine-3-carbonitrile] |  |
| 207 | Cn1cc(-c2cc(-c3ccc(N4CCN(CC(O)c5ccc(Cl)cc5)CC4)nc3)c3c(C#N)cnn3c2)cn1 (stereo not shown) [Example 152, 4-(6-(4-(2-(4-chlorophenyl)-2-hydroxyethyl)piperazin-1-yl)pyridin-3-yl)-6-(1-methyl-1H-pyrazol-4-yl)pyrazolo[1,5-a]pyridine-3-carbonitrile] |  |
| 164 | Cn1cc(-c2cc(-c3ccc(N4CCN(C[C@H](O)c5cccc(Cl)c5)CC4)nc3)c3c(C#N)cnn3c2)cn1 [Example 153, (R)-4-(6-(4-(2-(3-chlorophenyl)-2-hydroxyethyl)piperazin-1-yl)pyridin-3-yl)-6-(1-methyl-1H-pyrazol-4-yl)pyrazolo[1,5-a]pyridine-3-carbonitrile] |  |
| 155 | Cn1cc(-c2cc(-c3ccc(N4CCN(CC(O)c5c(F)cccc5F)CC4)nc3)c3c(C#N)cnn3c2)cn1 (stereo not shown) [Example 154, 4-(6-(4-(2-(2,6-difluorophenyl)-2-hydroxyethyl)piperazin-1-yl)pyridin-3-yl)-6-(1-methyl-1H-pyrazol-4-yl)pyrazolo[1,5-a]pyridine-3-carbonitrile] |  |
| 48.5 | Cn1cc(-c2cc(-c3ccc(N4CCN(C[C@H](O)c5ccccc5)CC4)nc3)c3c(C#N)cnn3c2)cn1 [Example 161, (R)-4-(6-(4-(2-hydroxy-2-phenylethyl)piperazin-1-yl)pyridin-3-yl)-6-(1-methyl-1H-pyrazol-4-yl)pyrazolo[1,5-a]pyridine-3-carbonitrile] |  |
| 42 | Cn1cc(-c2cc(-c3ccc(N4CCN(C[C@@H](O)c5ccccc5)CC4)nc3)c3c(C#N)cnn3c2)cn1 [Example 162, (S)-4-(6-(4-(2-hydroxy-2-phenylethyl)piperazin-1-yl)pyridin-3-yl)-6-(1-methyl-1H-pyrazol-4-yl)pyrazolo[1,5-a]pyridine-3-carbonitrile] |  |
| 73.6 | Cn1cc(-c2cc(-c3ccc(N4CCN(CC(O)c5ccc(F)cc5)CC4)nc3)c3c(C#N)cnn3c2)cn1 (stereo not shown) [Example 164, 4-(6-(4-(2-(4-fluorophenyl)-2-hydroxyethyl)piperazin-1-yl)pyridin-3-yl)-6-(1-methyl-1H-pyrazol-4-yl)pyrazolo[1,5-a]pyridine-3-carbonitrile] |  |
| 426 | Cn1cc(-c2cc(-c3ccc(N4CCC(NC(=O)[C@H]5CCCO5)CC4)nc3)c3c(C#N)cnn3c2)cn1 [Example 178, (R)—N-(1-(5-(3-cyano-6-(1-methyl-1H-pyrazol-4-yl)pyrazolo[1,5-a]pyridin-4-yl)pyridin-2-yl)piperidin-4-yl)tetrahydrofuran-2-carboxamide] |  |

Reference: patent publication US10023570B2 (Array BioPharma, Inc., priority 2015, dated 2018)
